Test results published in patent EP1641803B1, “THIENOPYRIMIDINE DERIVATIVES AS POTASSIUM CHANNEL INHIBITORS” (Xention Limited, priority 2003, dated 2004).

Legend:
human Kv1.5 = target: T1, human Kv1.5 (Homo sapiens, UniProt P22460); test: Kv1.5 Rb+ Efflux Assay; type: cell-based; details: inhibition of 86Rb+ efflux through Kv1.5; cells stably transfected with human Kv1.5; 10 point concentration response curves n=2; normalised to 2.5mM 4 amino-pyridine block
T1 construct: expressed in transfected cells
T1 sequence (P22460 whole entry): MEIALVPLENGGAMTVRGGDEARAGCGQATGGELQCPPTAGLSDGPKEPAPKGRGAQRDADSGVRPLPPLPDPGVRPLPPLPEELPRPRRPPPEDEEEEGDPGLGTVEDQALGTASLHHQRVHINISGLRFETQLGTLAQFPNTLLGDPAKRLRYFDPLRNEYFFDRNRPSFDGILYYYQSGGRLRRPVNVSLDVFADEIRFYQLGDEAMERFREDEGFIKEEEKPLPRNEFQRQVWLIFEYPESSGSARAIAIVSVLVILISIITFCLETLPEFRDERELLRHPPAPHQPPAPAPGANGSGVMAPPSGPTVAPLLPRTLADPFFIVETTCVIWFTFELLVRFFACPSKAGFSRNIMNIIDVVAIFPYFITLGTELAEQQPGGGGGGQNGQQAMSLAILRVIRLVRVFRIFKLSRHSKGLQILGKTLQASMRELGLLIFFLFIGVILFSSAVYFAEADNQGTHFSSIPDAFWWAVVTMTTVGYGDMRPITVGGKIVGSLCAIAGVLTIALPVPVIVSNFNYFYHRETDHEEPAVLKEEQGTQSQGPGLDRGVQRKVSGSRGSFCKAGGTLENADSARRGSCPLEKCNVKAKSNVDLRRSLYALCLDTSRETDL
Method: The pore of a potassium channel is permeable to other monovalent cations such as Rb^+ and Tl^+. Analysis of cellular efflux of potassium channel permeable ions enables potassium channel activity to be monitored directly. Cells stably transfected with cDNA for human Kv1.5 (in pEF6::VA-His-TOPO) were grown in Dulbecco's Modified Eagle media (DMEM) alpha supplemented with 10% Fetal Calf Serum (FCS), 20 µl/ml penicillin (5000U/ml) streptomycin (5000µg/ml), 10µl/ml [100x] glutamine, and blasticidin (7.5µg/ml). Cells were dispensed into 96 well cellstar TC plates and allowed to grow until a confluent monolayer was visible. On the morning of the assay run, cold media was aspirated using the TECAN plate washer, and a 50µl media spike containing 2µCi/ml (37kBq/ml) ^86Rb^+ added to each well containing cells using the Shallow-Well Matrix Platemate. Plates were placed in a incubator at 37°C for a minimum of 3 hours. Unloaded ^86Rb^+ in the "hot" media was aspirated and each well washed 4x250µl with Earls Balanced Salt Solution (EBSS) which contained 5mM KCl, 140mM NaCl, 2mM CaCl2, 1mM MgSO4, 10mM HEPES, and 5mM glucose, pH 7.4, 290-300 mOsm. These cells were then pre-incubated with 50µl of EBSS +/- test compounds for 10 minutes at room temperature. After the 10 minute incubation, 50µl of modified EBSS which contained 145mM KCl, 2mM CaCl2, 1mM MgSO4, 10mM HEPES, 5mM glucose, pH 7.4, 290-300 mOsm, was added, and the cells were incubated for a further 10 minutes at room temperature. The high KCl EBSS was used to depolarise cells to a membrane potential that would activate Kv1.5 channels. After the final incubation 80µl/100µl of the reaction from each well was transferred to equivalent wells in a Packard "Optiplate" white 96 well plate and counted in a Packard TopCount liquid scintillation counter by Cerenkov emission. Percentage inhibition ^86Rb^+ efflux through Kv1.5 was calculated by normalisation to 2.5mM 4 amino-pyridine control block of Kv1.5. Alternatively cells were loaded with ^85Rb^+ and quantified by atomic absorption spectroscopy. IC50 determinations were derived from 10 point concentration response curves n=2 using the method described above. Data was fitted as variable slope sigmoidal fit using Graphpad Prism (V3.02) software.

hKv1.5 = hKv1.5 (Homo sapiens, UniProt P22460); test: Kv1.5 Autopatch Electrophysiology (whole cell patch-clamp); type: cell-based; details: compound at 1µM, room temperature (22-24°C), held at -80mV, step to 0mV for 1000ms, total charge measured
Sequence of hKv1.5 (P22460 whole entry): as above
Method: The external bathing solution contained (in mM): 150 NaCl, 10 KCl, […], 3 MgCl2, 1 CaCl2, 10 HEPES, pH 7.4. Patch pipettes were filled with an electrode solution of composition (in mM): 160 KCl, 0.5 MgCl2, 10 HEPES, 1 EGTA, pH 7.4 with KOH.
Compounds were dissolved in DMSO (100 %) and made up in the external bather at a concentration of 1µM. All experiments were conducted at room temperature (22-24°C).
A cell suspension (10 ml), with a density of 100,000 cells/ml, was aliquoted into a 15ml centrifuge tube and transferred to an incubator (37°C, 5% CO2) for approximately one hour before use. Following 60 min incubation, a tube was taken and centrifuged at 1000 rpm for 4 mins at room temperature. 9.5 ml supernatant was thence discarded, leaving a cell pellet at the bottom of the tube. The pellet was then resuspended using 100 µl of cold (4 °C), filtered (0.22 µm), 0.2 % BSA/bather solution (0.02g BSA/10ml bather). The bottom of the tube was manually agitated gently until the solution became cloudy with cells. The 100 µl cell resuspension solution was then stored on the bench at 4 °C (using a Peltier-based temperature control device) until used.
A length of capillary glass (1B150F-4, WPI) was dipped into the cell suspension solution, such that - 3 cm column of fluid was taken up by capillary action. A Ag/AgCl wire was dropped into the non-dipped end of the capillary also. The outside of the solution-filled end of the capillary was then dried and the capillary was loaded into the AutoPatch™. Borosilicate glass patch pipettes (from 1.5mm OD, thin-walled filamented, GC150-TF capillary glass, Harvard) were pulled using a DMZ pipette puller (Zeitz Instruments), and were back-filled using the internal pipette solution, being careful that no bubbles remain at the tip or in the body of the pipette. Patch pipettes typically had resistances of 2.3-3.5 MΩ. Once filled, the pipette tip and a proportion of the shaft (- 15 mm) were dipped into Sigmacote (Sigma). The recording pipette was then loaded into the AutoPatch™.
Automated patch-clamping was initiated by the operator, but thereafter AutoPatch.exe continued the experiment providing that pre-set conditions and criteria were satisfied.
Whole cell patch-clamp recordings were made using the AutoPatch™ rig, which incorporated an EPC9 amplifier (HEKA, Germany) under control of Pulse software (v8.54, HEKA, Germany), a motion controller with 2 translators (Newport, UK), valve controller (VF1) and a c-level suction device all at room temperature (22-24°C). This equipment was completely under the control of AutoPatch.exe and operator intervention was only made when there was a requirement to refill the drug reservoirs or to prevent the loss of a cell due to a technical error. Cells with an Rseries greater than 18 MΩ were discounted from the experiment.
Qualification stages prior to perfusion and drug application ensured that the observed current met the criteria for the experiment. Only those cells with an IK > 500 pA were used for experiments. Cells were continuously perfused with external solution at a flow rate of 1.8-2 ml/minute. […] Online analysis of the hKv1.5 current during the application of compounds was performed by the AutoPatch™ software. Voltage-step protocols and analysis of data was performed as described for conventional electrophysiology.
Electrophysiology voltage-step protocols and analysis of data was performed as follows. Data was sampled at 5kHz, and filtered with a -3 dB bandwidth of 2.5kHz. Cells were held at a voltage of -80mV. Currents were evoked to a voltage step for 1000ms in duration at 0mV every 5s. Currents were analysed using Pulsefit software (v8.54, HEKA, Germany), with the total charge measured during the whole of the voltage step. All other plots were produced using Igor Pro (WaveMetrics).

SMILES	IC50 (human Kv1.5) [µM]	inhibition at 1 µM (hKv1.5) [%]	% Inhibition at 1µM (hKv1.5) [%]
CN(C)C(=O)CNc1ncnc2scc(-c3ccccc3)c12 [Example 103, N,N-Dimethyl-2-(5-phenyl-thieno[2,3-d]pyrimidin-4-ylamino)-acetamide]	> 30	13.6	
c1ccc(-c2csc3ncnc(NCc4ccccn4)c23)cc1 [Example 105, (5-Phenyl-thieno[2,3-d]pyrimidin-4-yl)-pyridin-2-ylmethyl-amine]	0.28	63	
c1ccc(-c2csc3ncnc(OCc4ccccn4)c23)cc1 [Example 106, 5-Phenyl-4-(pyridin-2-ylmethoxy)-thieno[2,3-d]pyrimidine]	0.33	21.9	
c1ccc(-c2csc3ncnc(NCc4ccoc4)c23)cc1 [Example 107, Furan-3-ylmethyl-(5-phenyl-thieno[2,3-d]pyrimidin-4-yl)-amine]	1.05	25.3	
Cc1ccc(CNc2ncnc3scc(-c4ccccc4)c23)o1 [Example 108, (5-Methyl-furan-2-ylmethyl)-(5-phenyl-thieno[2,3-d]pyrimidin-4-yl)-amine]	0.41	37.2	
c1ccc(-c2csc3ncnc(OCc4ccco4)c23)cc1 [Example 109, 4-(Furan-2-ylmethoxy)-5-phenyl-thieno[2,3-d]pyrimidine]	0.8	52.3	
Cn1cccc1CNc1ncnc2scc(-c3ccccc3)c12 [Example 110, (1-Methyl-1H-pyrrol-2-ylmethyl)-(5-phenyl-thieno[2,3-d]pyrimidin-4-yl)-amine]	3.9	14.2	
c1ccc(-c2csc3ncnc(NCCc4ccccn4)c23)cc1 [Example 111, (5-Phenyl-thieno[2,3-d]pyrimidin-4-yl)-(2-pyridin-2-yl-ethyl)-amine]	4.49	40	22.2
COC(=O)CNc1ncnc2scc(-c3ccccc3)c12 [Example 112, (5-Phenyl-thieno[2,3-d]pyrimidin-4-ylamino)-acetic acid methyl ester]	5.03	43.5	
c1csc(CNc2ncnc3scc(-c4cccs4)c23)c1 [Example 115, Thiophen-2-ylmethyl-(5-thiophen-2-yl-thieno[2,3-d]pyrimidin-4-yl)-amine]	7.07		45.9
c1ccc(-c2csc3ncnc(SCc4ccco4)c23)cc1 [Example 117, 4-(Furan-2-ylmethylsulfanyl)-5-phenyl-thieno[2,3-d]pyrimidine]	9.37	43.6	57.2
c1ccc(-c2csc3ncnc(NCCc4cccs4)c23)cc1 [Example 118, (5-Phenyl-thieno[2,3-d]pyrimidin-4-yl)-(2-thiophen-2-yl-ethyl)-amine]	8.56	15.8	
c1ccc(COc2ncnc3scc(-c4ccccc4)c23)cc1 [Example 119, 4-Benzyloxy-5-phenyl-thieno[2,3-d]pyrimidine]	5.79	44.1	
c1ccc(-c2csc3ncnc(SCc4ccccn4)c23)cc1 [Example 120, 5-Phenyl-4-(pyridin-2-ylmethylsulfanyl)-thieno[2,3-d]pyrimidine]	12.7	25	
Cc1ccc(-c2csc3ncnc(NCc4ccccn4)c23)nc1 [Example 121, [5-(5-Methyl-pyridin-2-yl)-thieno[2,3-d]pyrimidin-4-yl]-pyridin-2-ylmethyl-amine]	2.09	82.6	
Cc1ccc(-c2csc3ncnc(NCc4ccco4)c23)nc1 [Example 122, Furan-2-ylmethyl-[5-(5-methyl-pyridin-2-yl)-thieno[2,3-d]pyrimidin-4-yl]-amine]	3.53	36.3	
Cc1ccc(-c2csc3ncnc(NCc4ccco4)c23)cc1 [Example 126, Furan-2-ylmethyl-(5-p-tolyl-thieno[2,3-d]pyrimidin-4-yl)-amine]	0.47	83.4	
COc1ccc(CCNc2ncnc3scc(-c4ccc(C)cc4)c23)cc1OC [Example 127, [2-(3,4-Dimethoxy-phenyl)-ethyl]-(5-p-tolyl-thieno[2,3-d]pyrimidin-4-yl)-amine]	5.3	20.7	
Cc1ccc(-c2csc3ncnc(NCCN4CCNC4=O)c23)cc1 [Example 128, 1-[2-(5-p-Tolyl-thieno[2,3-d]pyrimidin-4-ylamino)-ethyl]-imidazolidin-2-one]	> 30	25	
Cc1ccc(-c2csc3ncnc(Oc4ccc5ccccc5c4)c23)cc1 [Example 129, 4-(Naphthalen-2-yloxy)-5-p-tolyl-thieno[2,3-d]pyrimidine]	> 30	47.4	
COC(=O)c1ccc(Oc2ncnc3scc(-c4ccc(C)cc4)c23)cc1 [Example 131, 4-(5-p-Tolyl-thieno[2,3-d]pyrimidin-4-yloxy)-benzoic acid methyl ester]	> 30	29.8	
Cc1ccc(-c2csc3ncnc(NCCc4ccc5c(c4)OCCO5)c23)cc1C [Example 132, [2-(2,3-Dihydro-benzo[1,4]dioxin-6-yl)-ethyl]-[5-(3,4-dimethyl-phenyl)-thieno[2,3-d]pyrimidin-4-yl]-amine]	4.58	92	
Cc1ccc(-c2csc3ncnc(NCc4ccco4)c23)cc1C [Example 133, [5-(3,4-Dimethyl-phenyl)-thieno[2,3-d]pyrimidin-4-yl]-furan-2-ylmethyl-amine]	0.67	77	
Clc1ccc(-c2csc3ncnc(NCc4ccco4)c23)cc1 [Example 135, [5-(4-Chloro-phenyl)-thieno[2,3-d]pyrimidin-4-yl]-furan-2-ylmethyl-amine]	0.93	84.8	
